Data as given in patent US10124004B2, “Pyrido[3,4-d]pyrimidine derivative and pharmaceutically acceptable salt thereof” (Teijin Pharma Limited, priority 2015, dated 2018).

Target: T1, CDK4/cyclin D3 (Homo sapiens, UniProt P11802)
T1 construct: purchased Carna Biosciences, Inc. QS S Assist CDK4/Cyclin D3_FP Kit
Assay: Human CDK4/cyclin D3 inhibitory activity (QS S Assist CDK4/Cyclin D3_FP Kit, IMAP fluorescence polarization)
Format: biochemical
Conditions: 50% inhibitory concentration against CDK4/cyclin D3, given as class symbol
Method: Human CDK4/Cyclin D3 Inhibitory Activity
Each compound was analyzed for CDK4/cyclin D3 inhibitory activity with an assay kit (QS S Assist CDK4/Cyclin D3_FP Kit, available from Carna Biosciences, Inc.). This assay kit determines kinase activity on the basis of the IMAP technology by Molecular Devices. Specifically, the kinase activity is determined through quantification of a variation in fluorescent polarization caused by binding of a kinase-phosphorylated fluorescent substance to an IMAP-binding reagent.
Each solution was prepared with the 10× assay buffer attached to the kit or a separately prepared assay buffer having the same composition as the assay buffer attached to the kit. An assay buffer was prepared by 10-fold dilution of the 10× assay buffer with distilled water. The assay buffer contains 20 mM HEPES (pH 7.4), 0.01% Tween20, and 2 mM dithiothreitol. A test compound solution was prepared by dilution of the test compound with dimethyl sulfoxide (DMSO) to a concentration 100 times higher than the final concentration and then 25-fold dilution with the assay buffer to a concentration four times higher than the final concentration. An ATP/substrate/Metal solution was prepared by five-fold dilution of the 5×ATP/substrate/Metal solution attached to the kit with the assay buffer. An enzyme solution was prepared by dilution of the CDK4/cyclin D3 attached to the kit with the assay buffer to a concentration twice higher than the final concentration (final concentration of CDK4/cyclin D3:12.5 to 25 ng/well). A detection reagent was prepared by five-fold dilution of each of 5× IMAP-binding buffer A and 5×IMAP-binding buffer B with distilled water, mixing of IMAP-binding buffer A with IMAP-binding buffer B at a ratio of 85:15, and 400-fold dilution of the IMAP-binding reagent with the mixed buffer.
The test compound solution (5 μL/well) and the ATP/substrate/Metal solution (5 μL/well) were added to a 384-well plate, and the enzyme solution or the assay buffer (10 μL/well) was added to the plate (total amount of the reaction mixture: 20 μL/well) for initiation of enzymatic reaction. […] The reaction was performed at room temperature for 45 minutes, and the detection reagent (60 μL/well) was then added to the plate, followed by further reaction for 30 minutes at room temperature under light shielding conditions. Subsequently, fluorescent polarization was determined with a microplate reader at an excitation wavelength of 485 nm and an emission wavelength of 535 nm.
The percent inhibition of enzyme activity was calculated for each test compound (note: enzyme activity=100% in the case of addition of the enzyme solution and addition of DMSO instead of the test compound solution, whereas enzyme activity=0% in the case of addition of the assay buffer instead of the enzyme solution, and addition of DMSO instead of the test compound solution). The percent inhibition of enzyme activity was fitted to a dose-response curve, to determine a 50% inhibitory concentration against CDK4/cyclin D3.
In each table, “+++” corresponds to IC50<10 nM, “++” 10 nM≤IC50<100 nM, and “+” 100 nM≤IC50.

T1 sequence (P11802 whole entry): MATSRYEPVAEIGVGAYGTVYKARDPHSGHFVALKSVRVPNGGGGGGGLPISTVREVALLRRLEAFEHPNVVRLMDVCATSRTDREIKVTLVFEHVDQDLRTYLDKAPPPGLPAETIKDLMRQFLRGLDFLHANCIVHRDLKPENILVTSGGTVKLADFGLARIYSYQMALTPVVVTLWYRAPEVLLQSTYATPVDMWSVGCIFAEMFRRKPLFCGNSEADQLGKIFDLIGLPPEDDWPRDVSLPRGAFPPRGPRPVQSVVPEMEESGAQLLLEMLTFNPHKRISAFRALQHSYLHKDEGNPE
T1 sequence (P30281 whole entry partner): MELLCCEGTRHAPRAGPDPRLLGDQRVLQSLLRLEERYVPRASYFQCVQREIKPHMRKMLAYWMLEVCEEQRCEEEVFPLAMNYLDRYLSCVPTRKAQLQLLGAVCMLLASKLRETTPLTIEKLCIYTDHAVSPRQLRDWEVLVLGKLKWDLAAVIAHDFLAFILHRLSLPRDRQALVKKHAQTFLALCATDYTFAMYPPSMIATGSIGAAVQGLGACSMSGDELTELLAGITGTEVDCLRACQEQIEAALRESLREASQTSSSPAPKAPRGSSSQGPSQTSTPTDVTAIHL

CC(C)Nc1nc([C@@H](C)O)cc2cnc(Nc3ccc(N4CCC(C)(CO)CC4)nn3)nc12 [Compound 688] gave an IC50 of less than 10 nM.

Same assay, conditions: Human CDK4/cyclin D3 inhibitory activity; read-out: CDK4 Activity symbol

First: CO[C@H](C)c1cc2cnc(Nc3ccc(N4CC(=O)NCC4=O)cn3)nc2c(NC(C)C)n1 [Compound 533]
Second: CO[C@H](C)c1cc2cnc(Nc3ccc(N4CCN[C@H](C)C4=O)cn3)nc2c(NC(C)C)n1 [Compound 462]
The IC50 of the first is lower: less than 10 nM for the first, 10 to 100 nM for the second.

First: CC(C)Nc1nc([C@@H](C)O)cc2cnc(Nc3ccc(N4CCN(C(C)CO)CC4=O)cn3)nc12 (stereo partly drawn) [Compound 598]
Second: CC(C)Nc1nc([C@@H](C)O)cc2cnc(Nc3ccc(N4CCN[C@H](C)C4=O)cn3)nc12 [Compound 506]
The IC50 of the first is lower: less than 10 nM for the first, 10 to 100 nM for the second. The first is the more potent here.

First: CC(C)Nc1nc(C(C)O)cc2cnc(Nc3ccc(CN4CCNC5(CC5)C4)cn3)nc12 (stereo not drawn) [Compound 516]
Second: CO[C@H](C)c1cc2cnc(Nc3ccc(CN4CCNC5(CC5)C4)cn3)nc2c(NC(C)C)n1 [Compound 535]
The IC50 of the first is higher: 10 to 100 nM for the first, less than 10 nM for the second. The second is the more potent here.

COC(C)c1cc2cnc(Nc3ccc(CN4CCNCC4)cn3)nc2c(NCC2CCC(=O)N2)n1 (stereo not drawn) [Compound 403] and COC(C)c1cc2cnc(Nc3ccc(CN4CCNCC4)cn3)nc2c(NCC2CNC(=O)C2)n1 (stereo not drawn) [Compound 406] fall in the same range of IC50: 10 to 100 nM for the first, 10 to 100 nM for the second.

First: COC(=O)[C@H]1CC[C@H](CNc2nc(C(C)OC)cc3cnc(Nc4ccc(CN5CCNCC5)cn4)nc23)CC1 (stereo partly drawn) [Compound 390]
Second: COC(C)c1cc2cnc(Nc3ccc(CN4CCNCC4)cn3)nc2c(NC[C@H]2CC[C@H](C(=O)O)CC2)n1 (stereo partly drawn) [Compound 435]
The IC50 of the first is lower: less than 10 nM for the first, 10 to 100 nM for the second. The first is the more potent here.

COC(C)c1cc2cnc(Nc3ccc(CN4CCNCC4)cn3)nc2c(NC23CCC(C(=O)O)(CC2)CC3)n1 (stereo not drawn) [Compound 475] and COC(C)c1cc2cnc(Nc3ccc(CN4CCNCC4)cn3)nc2c(N[C@H]2CC[C@](C)(C(=O)O)CC2)n1 (stereo partly drawn) [Compound 436] fall in the same range of IC50: 10 to 100 nM for the first, 10 to 100 nM for the second.

COC(C)c1cc2cnc(Nc3ccc(CN4CCNCC4)cn3)nc2c(Nc2ccc(C#N)cc2)n1 (stereo not drawn) [Compound 401] and COC(C)c1cc2cnc(Nc3ccc(CN4CCNCC4)cn3)nc2c(Nc2ccc(F)cc2)n1 (stereo not drawn) [Compound 446] fall in the same range of IC50: 10 to 100 nM for the first, 10 to 100 nM for the second.

CO[C@H](C)c1cc2cnc(Nc3ccc(CC(=O)N4CCNCC4)cn3)nc2c(NC(C)C)n1 [Compound 518] and CO[C@H](C)c1cc2cnc(Nc3ccc(CN4CCC(O)CC4)cn3)nc2c(NC(C)C)n1 [Compound 494] cannot be ordered by IC50: less than 10 nM for the first, less than 10 nM for the second.

First: COC(C)c1cc2cnc(Nc3ccc(CN4CCNCC4)cn3)nc2c(NC2CCCN(C(C)=O)C2)n1 (stereo not drawn) [Compound 405]
Second: COC(C)c1cc2cnc(Nc3ccc(CN4CCNCC4)cn3)nc2c(NC2CCCCCC2)n1 (stereo not drawn) [Compound 445]
The IC50 of the first is higher: 10 to 100 nM for the first, less than 10 nM for the second. The second is the more potent here.

CO[C@H](C)c1cc2cnc(Nc3ccc(N4CC5(CCNCC5)C4)cn3)nc2c(NC(C)C)n1 [Compound 482] and CO[C@H](C)c1cc2cnc(Nc3ccc(N4CC5(CCCNC5)C4)cn3)nc2c(NC(C)C)n1 [Compound 477] cannot be ordered by IC50: less than 10 nM for the first, less than 10 nM for the second.

CO[C@H](C)c1cc2cnc(Nc3ccc(N4CC5(CC(N)C5)C4)cn3)nc2c(NC(C)C)n1 [Compound 484] and CO[C@H](C)c1cc2cnc(Nc3ccc(N4CC5(CC(O)C5)C4)nn3)nc2c(NC(C)C)n1 [Compound 523] cannot be ordered by IC50: less than 10 nM for the first, less than 10 nM for the second.

Going from COCC(C)(C)Nc1nc([C@@H](C)O)cc2cnc(Nc3ncc(N4CCNCC4)cn3)nc12 [Compound 375] to COC(C)c1cc2cnc(Nc3ccc(CN4CCNCC4)cn3)nc2c(NCC(C)(C)C)n1 (stereo not drawn) [Compound 418], the IC50 falls from no less than 100 nM to less than 10 nM.

First: CO[C@H](C)c1cc2cnc(Nc3ccc(CN4CCNCC4)cn3)nc2c(NC2CCS(=O)(=O)CC2)n1 [Compound 361]
Second: COC(C)c1cc2cnc(Nc3ccc(CN4CCNCC4)cn3)nc2c(NC2CCNC(=O)C2)n1 (stereo not drawn) [Compound 422]
The IC50 of the first is lower: less than 10 nM for the first, 10 to 100 nM for the second. The first is the more potent here.

COC(C)c1cc2cnc(Nc3ccc(CN4CCNCC4)cn3)nc2c(NCc2ccc(=O)[nH]c2)n1 (stereo not drawn) [Compound 416] and COC(C)c1cc2cnc(Nc3ccc(CN4CCNCC4)cn3)nc2c(Nc2cccc(F)c2)n1 (stereo not drawn) [Compound 447] fall in the same range of IC50: 10 to 100 nM for the first, 10 to 100 nM for the second.

First: COC(C)c1cc2cnc(Nc3ccc(CN4CCNCC4)cn3)nc2c(N(C)C(C)C)n1 (stereo not drawn) [Compound 391]
Second: COC(C)c1cc2cnc(Nc3ccc(CN4CCNCC4)cn3)nc2c(NC(C)C2CCOC2)n1 (stereo not drawn) [Compound 404]
The IC50 of the first is higher: 10 to 100 nM for the first, less than 10 nM for the second.

Compared with CO[C@H](C)c1cc2cnc(Nc3ccc(N(C)C(=O)C4CCNCC4)cn3)nc2c(NC(C)C)n1 [Compound 377], COC(C)c1cc2cnc(Nc3ccc(O[C@H]4CCNC[C@H]4F)cn3)nc2c(NC(C)C)n1 (relative stereo) [Compound 460] is lower in IC50: 10 to 100 nM for the first, less than 10 nM for the second.

CO[C@H](C)c1cc2cnc(Nc3ccc(N4CCNCC4=O)nn3)nc2c(NC(C)C)n1 [Compound 356] and CO[C@H](C)c1cc2cnc(Nc3ccc(N4CCNC(=O)C4)nn3)nc2c(NC(C)C)n1 [Compound 362] fall in the same range of IC50: 10 to 100 nM for the first, 10 to 100 nM for the second.

First: COC(C)c1cc2cnc(Nc3ccc(CN4CCNCC4)cn3)nc2c(NC2CNC(=O)C2)n1 (stereo not drawn) [Compound 419]
Second: COC(C)c1cc2cnc(Nc3ccc(CN4CCNCC4)cn3)nc2c(NC2CCOC(C)(C)C2)n1 (stereo not drawn) [Compound 410]
The IC50 of the first is higher: 10 to 100 nM for the first, less than 10 nM for the second.

CO[C@H](C)c1cc2cnc(Nc3ccc(N4CCCNCC4)nn3)nc2c(NC(C)C)n1 [Compound 495] and CO[C@H](C)c1cc2cnc(Nc3ccc(N4CCCN(C)CC4)nn3)nc2c(NC(C)C)n1 [Compound 488] cannot be ordered by IC50: less than 10 nM for the first, less than 10 nM for the second.

Going from CC(C)Nc1nc([C@@H](C)O)cc2cnc(Nc3ccc(N4CCNCC(C)(C)C4=O)cn3)nc12 [Compound 543] to C[C@@H](O)c1cc2cnc(Nc3ccc(N4CCNC(C)(C)C4=O)cn3)nc2c(NC2CCOCC2)n1 [Compound 441], the IC50 rises from less than 10 nM to no less than 100 nM. The first is the more potent here.

CO[C@H](C)c1cc2cnc(Nc3ccc(OC4CC5CCC(C4)N5)cn3)nc2c(NC(C)C)n1 (stereo partly drawn) [Compound 504] and CO[C@H](C)c1cc2cnc(Nc3ccc(N4C5CCC4CNC5)cn3)nc2c(NC(C)C)n1 [Compound 500] cannot be ordered by IC50: less than 10 nM for the first, less than 10 nM for the second.

First: CC1(C)NCCN(c2ccc(Nc3ncc4cc(C(F)F)nc(NC5CCOCC5)c4n3)nc2)C1=O [Compound 439]
Second: CC(C)Nc1nc(C(F)F)cc2cnc(Nc3ccc(C4CCOCC4)cn3)nc12 [Compound 160]
The IC50 of the first is higher: 10 to 100 nM for the first, less than 10 nM for the second.

First: COC(C)c1cc2cnc(Nc3ccc(CN4CCNCC4)cn3)nc2c(NCC2COC2)n1 (stereo not drawn) [Compound 396]
Second: COC(C)c1cc2cnc(Nc3ccc(CN4CCNCC4)cn3)nc2c(NC2(C)CCOCC2)n1 (stereo not drawn) [Compound 420]
The IC50 of the first is higher: no less than 100 nM for the first, less than 10 nM for the second. The second is the more potent here.

Compared with CO[C@H](C)c1cc2cnc(Nc3ccc(NC4CC5(CNC5)C4)cn3)nc2c(NC(C)C)n1 [Compound 485], CO[C@H](C)c1cc2cnc(Nc3ccc(OCC4(N)CCC4)cn3)nc2c(NC(C)C)n1 [Compound 505] is higher in IC50: less than 10 nM for the first, 10 to 100 nM for the second. The first is the more potent here.

CC(C)Nc1nc([C@@H](C)O)cc2cnc(Nc3ccc(OC4CCNC4)nn3)nc12 (stereo partly drawn) [Compound 544] and CC(C)Nc1nc([C@@H](C)O)cc2cnc(Nc3ccc(N4CCNC(=O)C4)nn3)nc12 [Compound 540] cannot be ordered by IC50: less than 10 nM for the first, less than 10 nM for the second.

CO[C@H](C)c1cc2cnc(Nc3ccc(N4CCC5(CC4)COC5)cn3)nc2c(NC(C)C)n1 [Compound 481] and CO[C@H](C)c1cc2cnc(Nc3ccc(N4CCN(C(C)(C)C)CC4)nn3)nc2c(NC(C)C)n1 [Compound 599] fall in the same range of IC50: 10 to 100 nM for the first, 10 to 100 nM for the second.

COC(C)c1cc2cnc(Nc3ccc(CN4CCNCC4)cn3)nc2c(NC2(CO)CCOCC2)n1 (stereo not drawn) [Compound 433] was tested, and the IC50 was 10 to 100 nM.
